This is an account of results in US11213512B2, “Bis-amino acid based compound and use thereof” (THE CURATORS OF THE UNIVERSITY OF MISSOURI, priority 2016, dated 2022).

The structures appear in SMILES notation. Read-outs that look alike come from different tables or passages of the source.

What all share (assay): MIC, CLSI/NCCLS broth microdilution
(In general: Dilution methods test growth across graded concentrations, often in twofold steps.)

Assay [1] concerns S. aureus (ATCC Accession No. 29213). The assay is classed as cell-based, Staphylococcus aureus. Conditions: Staphylococcus aureus, read-out: Minimal Inhibitory Concentration (MIC) S. aureus. As to the method: (§1) Two different strains of E. coli (Gram-negative) were used. The laboratory strain of E. coli, K-12 (ATCC Accession No. 700926), was used for preliminary MIC determinations. The tetracycline resistant strain of E. coli (Tet^R) was prepared by transforming competent JM109 E. coli (Promega) with the pBR322 plasmid (Carolina Biologicals) using the manufacturers protocol. This plasmid contains two resistance genes: the tetA gene expresses the tetracycline resistance TetA efflux pump (Sapunaric and Levy, Microbiol. 2005, 151, 2315-2322) and the amp^R gene expresses a β-lactamase enzyme (Bolivar, et al; Gene 1977, 2, 95-113) that cleaves the four membered ring of penicillin derivatives. The resulting E. coli, which we designate Tet^R E. coli, is both tetracycline and ampicillin resistant. The TetA efflux pump belongs to the major facilitator superfamily (MFS), spans the cytoplasmic membrane, and transports tetracycline from the cell cytoplasm to the periplasmic space (Thanassi, et al., J. Bacteriol. 1995, 177, 998-1007). This active efflux utilizes the proton gradient as an energy source (Levy, Antimicrob. Agents Chemother. 1992, 36, 695-703). One Gram-positive strain, S. aureus (ATCC Accession No. 29213), used for MIC study expresses the MFS type NorA efflux pump and is methicillin sensitive. MFS type efflux pumps are clinically relevant for resistance in both Gram-positive and Gram-negative bacteria (Sun, et al., Biochem. Biophys. Res. Commun. 2014, 453, 254-267). A Staphylococcus aureus 1199B strain that overexpresses the NorA efflux pump was also used to conduct checkerboard experiments (see, Example 8 below). This strain of S. aureus 1199B is resistant to both norfloxacin and ethidium bromide.
(§2) K-12 E. coli and S. aureus were acquired from ATCC. The S. aureus strain was used in the BSL-2 facility. K-12 E. coli was grown in L. B. Miller media (Sigma-Aldrich) and S. aureus was grown in cation adjusted MHII media (Sigma-Aldrich). Tet^R E. coli was grown in L. B. Miller media containing 100 μg/mL Ampicillin.
(§3) MIC experiments were performed as described in the Clinical and Laboratory Standards Institute (CLSI) standard microdilution protocols. Bacteria was grown overnight from one CFU in media without antibiotics. Tet^R E. coli was grown in media containing 100 μg/mL Ampicillin. On the day of experiment, bacteria were knocked back to O.D. 600 nm=0.550 in the same media. These exponential phase bacteria were then diluted in antibiotics-free media to get […]. In a 96-well plate either L. B. Miller or MHII media was added followed by serially diluted compounds 1-11, tetracycline, or ampicillin. All the tryptophan based compounds were dissolved in DMSO and the final concentration of DMSO in each well was kept constant at 0.5% (v/v).
(§4) For the combination experiments, first, the BT or control was added to the media in the well followed by the antibiotics. The contents of the well were mixed before adding 20 μL of bacteria to get 4×10^5 CFU/mL per well. The plates were incubated at 37° C., 200 RPM for 24 hours before collecting results on the Biotek Cytation 3 plate reader. No more than three plates were stacked on top of each other at a time. Optical density of the wells was determined at λ=600 nm. Cells alone were considered as 0% inhibition and media alone was considered as 100% inhibition. Any inhibition greater than 80% was considered as the MIC. The results were reproduced three times before reporting.
(§5) All minimum inhibitory concentration (MIC) values for compounds 1-11 were determined according to the methods prescribed by the National Committee for Clinical Laboratory Standards (NCCLS, Methods for Dilution Antimicrobial Susceptibility Tests for Bacteria that grow aerobically; National Committee for Clinical Laboratory Standards 2000, 5th Edition, M7-A5). […]

Assay [2] relates to Tet^R E. coli. The assay is classed as cell-based, Escherichia coli. Particulars: 24 h; for MIC: Escherichia coli, read-out: Minimal Inhibitory Concentration (MIC) E. coli Tet^R; for Minimal Inhibitory Concentration (MIC) E. coli Tet^R: >80% growth inhibition, 37° C., substance alone. As to the method:
as §1, §2, §3, §4, §5

Assay [3] relates to E. coli K12. The format is cell-based, Escherichia coli. Particulars: Escherichia coli, K12, 24 h, read-out: Minimal Inhibitory Concentration (MIC) E. coli K12. As to the method:
as §1, §2, §3, §4, §5

[4] abbreviates: ATCC29213, >80% growth inhibition, 24 h, 37° C.

With `Cl.Cl.N[C@@H](Cc1c[nH]c2ccccc12)C(=O)Nc1ccccc1NC(=O)[C@@H](N)Cc1c[nH]c2ccccc12` [Compound 5, (2S,2′S)-1,1′-(1,2-Phenylenebis(azanediyl))bis(3-(1H-indol-3-yl)-1-oxopropan-2-aminium) chloride], the MIC was determined as 32 µM in assay [1] (setting [4]), 56 ± 8 µM in assay [2] and 64 µM in assay [3].

Turning to `Cl.Cl.N[C@@H](Cc1c[nH]c2ccccc12)C(=O)NCCCNC(=O)[C@@H](N)Cc1c[nH]c2ccccc12` [Compound 7, (2S,2′S)-1,1′-(Propane-1,3-diylbis(azanediyl))bis(3-(1H-indol-3-yl)-1-oxopropan-2-aminium) chloride], the MIC in assay [1] (ATCC29213, 24 h) is > 128 µM; in assay [2], > 128 µM; in assay [3] it was > 128 µM.

With `Cl.Cl.N[C@@H](Cc1c[nH]c2ccccc12)C(=O)Nc1cccc(NC(=O)[C@@H](N)Cc2c[nH]c3ccccc23)c1` [Compound 2, (2S,2′S)-1,1′-(1,3-Phenylenebis(azanediyl))bis(3-(1H-indol-3-yl)-1-oxopropan-2-aminium) chloride], the MIC in assay [1] (setting [4]) worked out at 32 µM; in assay [2], 48 ± 8 µM; in assay [3] it was 64 µM. The “Minimal Inhibitory Concentration (MIC) E. coli Tet^R” value in assay [2] was 48 ± 8 µM.

For the compound `Cl.Cl.N[C@H](Cc1c[nH]c2ccccc12)C(=O)NCCCCCCCCCCCCNC(=O)[C@@H](N)Cc1c[nH]c2ccccc12` [Compound 10, (S)-1-((12-((R)-2-Ammonio-3-(1H-indol-3-yl)propanamido)dodecyl)amino)-3-(1H-indol-3-yl)-1-oxopropan-2-aminium chloride], the MIC in assay [1] (setting [4]) was found to be 4 µM; in assay [2] it was 10 ± 2 µM; in assay [3], 8 µM.

In the case of `Cl.Cl.N[C@@H](Cc1c[nH]c2ccccc12)C(=O)Nc1ccc(NC(=O)[C@@H](N)Cc2c[nH]c3ccccc23)cc1` [Compound 6, (2S,2′S)-1,1′-(1,4-Phenylenebis(azanediyl))bis(3-(1H-indol-3-yl)-1-oxopropan-2-aminium) chloride], the MIC in assay [1] (setting [4]) stood at 128 µM; in assay [2], 120 ± 14 µM; in assay [3], 128 µM.

With `Cl.Cl.N[C@H](Cc1c[nH]c2ccccc12)C(=O)Nc1cccc(NC(=O)[C@H](N)Cc2c[nH]c3ccccc23)c1` [Compound 3, (2R,2′R)-1,1′-(1,3-Phenylenebis(azanediyl))bis(3-(1H-indol-3-yl)-1-oxopropan-2-aminium) chloride], the MIC came out at 32 µM in assay [1] (setting [4]), 28 ± 4 µM in assay [2] and 64 µM in assay [3]. For the same compound, the “Minimal Inhibitory Concentration (MIC) E. coli Tet^R” value in assay [2] turned out to be 28 ± 4 µM.
